Experiments:
[1] = system: Lactobacillus plantarum LMG P-26358; assay: growth profile in MRS broth substituted with various sugars; format: cell-based; conditions: for GT (generation time) / μmax (specific growth rate): 2% sugar in the MRS broth; for ability of Lb. plantarum LMG P-26358 to grow on the sugar: sugar acidification profiles
L. innocua = assay: frequency of bacteriocin resistance development; format: cell-based, Listeria innocua; conditions: 2560 au/ml bacteriocin (purified preparation) and/or 320 au/ml nisin
Protocol: The frequency of development of resistance in L. innocua to 2560 au/ml of the bacteriocin produced by Lb. plantarum LMG P-26358 (purified preparation) was calculated at 1.13×10^−3. […] The resistant colonies were picked off and tested for their sensitivity to the bacteriocin produced by Lb. plantarum LMG P-26358.

Compound	GT (generation time) [1]	μmax (specific growth rate) [1]	ability of Lb. plantarum LMG P-26358 to grow on the sugar [1]	frequency of development of resistance in L. innocua (L. innocua)
O=C[C@H](O)[C@@H](O)[C@H](O[C@@H]1O[C@H](CO)[C@@H](O)[C@H](O)[C@H]1O)[C@H](O)CO [Cellobiose]	90 min	0.2018 OD600 · hour^−1	capable of growing	
O=C(CO)[C@@H](O)[C@H](O)[C@H](O)CO [Fructose]	104 min	0.174 OD600 · hour^−1	capable of growing	
O=C[C@H](O)[C@@H](O)[C@@H](O)[C@H](O)CO [Galactose]	123 min	0.1473 OD600 · hour^−1	capable of growing	
OC[C@H]1O[C@@H](O[C@H]2[C@H](O)[C@@H](O)C(O)O[C@@H]2CO)[C@H](O)[C@@H](O)[C@H]1O (stereo partly shown) [Lactose]	100 min	0.1815 OD600 · hour^−1	can grow efficiently	
OC[C@H]1O[C@H](O[C@H]2[C@H](O)[C@@H](O)[C@H](O)O[C@@H]2CO)[C@H](O)[C@@H](O)[C@@H]1O [Maltose]	79 min	0.2277 OD600 · hour^−1	capable of growing	
OC[C@H]1O[C@H](OC[C@H]2O[C@H](O[C@]3(CO)O[C@H](CO)[C@@H](O)[C@@H]3O)[C@H](O)[C@@H](O)[C@@H]2O)[C@H](O)[C@@H](O)[C@H]1O [Raffinose]	246 min	0.0734 OD600 · hour^−1	unable to metabolise	
OC[C@H]1O[C@@](CO)(O[C@H]2O[C@H](CO)[C@@H](O)[C@H](O)[C@H]2O)[C@@H](O)[C@@H]1O [Sucrose]	86 min	0.2088 OD600 · hour^−1	capable of growing	
OC[C@H]1O[C@H](O[C@H]2O[C@H](CO)[C@@H](O)[C@H](O)[C@H]2O)[C@H](O)[C@@H](O)[C@@H]1O [Trehalose]	92 min	0.1963 OD600 · hour^−1	capable of growing	
nisin				2.16×10^−2
